In assay [1] the target is T1, ΔF508-CFTR (Homo sapiens, UniProt P13569, DEL508-508).
T1 construct: host or cells: CFBE41o-, doxycycline-inducible
The assay can be described thus: CFTR cell surface levels using HRP-tagged ΔF508-CFTR expressing CFBE cells, in the presence of a co-corrector. Conditions: HRP-tagged ΔF508-CFTR expressing CFBE cells, in the presence of 3 μM co-corrector; for EC50: read-out: EC50. Format: cell-based. The method, boiled down: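 Cells were seeded with 0.5 μg/mL doxycycline and held 68 h at 37 °C. Test compounds plus 3 μM co-corrector (final 0.1% DMSO) were then added for 20 h at 33 °C. Washed cells received HRP substrate, and luminescence was normalized between DMSO and 3 μM co-corrector controls.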

The target of assay [2] is T1, ΔF508-CFTR. Description: CFTR cell surface levels using HRP-tagged ΔF508-CFTR expressing CFBE cells, intrinsic corrector capacity. Format: cell-based. The conditions noted are these: for EC50: read-out: EC50. The method in brief: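 Here the cells express ΔF508-CFTR with horseradish peroxidase inserted in extracellular loop 4, so only rescued channel at the surface gives luminescent signal. Compounds act on their own, 20 h at the reduced temperature of 33 °C; values are percent activity relative to DMSO and a 3 μM corrector.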

Setting [3] is: HRP-tagged ΔF508-CFTR CFBE41o- cells, compounds alone (intrinsic corrector capacity), 20 hours at 33° C., positive control 3 μM corrector.
The mark [4] stands for this setting: HRP-tagged ΔF508-CFTR CFBE41o- cells, compounds alone (intrinsic corrector capacity), 20 hours at 33° C.
Where [5] appears, read: HRP-tagged ΔF508-CFTR expressing CFBE cells, intrinsic corrector capacity (no co-corrector), 33° C., 20 hours.

T1 sequence (P13569 with tags, fused parts or gaps DEL508-508): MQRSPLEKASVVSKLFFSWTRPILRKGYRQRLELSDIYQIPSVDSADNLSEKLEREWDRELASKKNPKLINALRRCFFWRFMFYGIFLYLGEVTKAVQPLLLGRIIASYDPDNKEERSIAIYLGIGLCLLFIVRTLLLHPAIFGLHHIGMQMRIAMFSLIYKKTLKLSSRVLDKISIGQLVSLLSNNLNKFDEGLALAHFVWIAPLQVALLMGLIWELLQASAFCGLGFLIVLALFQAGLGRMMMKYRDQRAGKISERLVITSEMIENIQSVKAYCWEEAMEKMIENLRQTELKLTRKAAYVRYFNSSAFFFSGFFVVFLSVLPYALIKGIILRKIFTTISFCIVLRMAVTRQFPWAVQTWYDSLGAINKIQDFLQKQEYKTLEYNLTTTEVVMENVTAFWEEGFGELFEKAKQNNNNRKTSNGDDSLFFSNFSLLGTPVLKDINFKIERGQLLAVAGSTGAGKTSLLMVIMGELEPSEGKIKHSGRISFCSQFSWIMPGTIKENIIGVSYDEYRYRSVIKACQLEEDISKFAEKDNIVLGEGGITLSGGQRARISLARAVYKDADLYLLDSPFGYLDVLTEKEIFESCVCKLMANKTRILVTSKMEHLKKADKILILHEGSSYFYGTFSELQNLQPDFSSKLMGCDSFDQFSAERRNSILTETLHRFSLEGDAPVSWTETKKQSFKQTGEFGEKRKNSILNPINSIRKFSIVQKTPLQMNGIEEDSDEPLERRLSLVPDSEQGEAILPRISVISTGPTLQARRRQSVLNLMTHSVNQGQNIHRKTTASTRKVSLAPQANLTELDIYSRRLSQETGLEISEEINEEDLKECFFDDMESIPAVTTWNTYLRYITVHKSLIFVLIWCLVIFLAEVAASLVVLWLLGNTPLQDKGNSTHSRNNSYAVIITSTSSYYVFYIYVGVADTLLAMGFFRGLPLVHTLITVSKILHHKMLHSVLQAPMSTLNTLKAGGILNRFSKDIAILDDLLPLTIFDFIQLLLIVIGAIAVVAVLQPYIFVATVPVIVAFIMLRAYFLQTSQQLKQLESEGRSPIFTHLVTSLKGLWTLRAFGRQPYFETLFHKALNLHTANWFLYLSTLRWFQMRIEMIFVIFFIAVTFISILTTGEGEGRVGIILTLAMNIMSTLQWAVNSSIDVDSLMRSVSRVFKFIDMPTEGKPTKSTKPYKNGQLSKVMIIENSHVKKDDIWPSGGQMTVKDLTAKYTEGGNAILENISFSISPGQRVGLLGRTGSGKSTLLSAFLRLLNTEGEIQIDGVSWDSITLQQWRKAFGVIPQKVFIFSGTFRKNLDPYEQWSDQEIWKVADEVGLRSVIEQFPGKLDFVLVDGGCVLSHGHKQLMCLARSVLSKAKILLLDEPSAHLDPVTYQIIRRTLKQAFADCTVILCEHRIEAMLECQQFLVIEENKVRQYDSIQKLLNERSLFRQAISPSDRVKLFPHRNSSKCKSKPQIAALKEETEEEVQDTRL

The term EC50 denotes the concentration needed to bring the measured effect to its halfway point. Consider `COC(=O)N1CCC(n2nc(C(C)C)c3c(-c4ccc(N5CCOCC5)cc4)cc(C(=O)O)nc32)C1` (centres unmarked) [compound 142, 1-[1-(methoxycarbonyl)pyrrolidin-3-yl]-4-[4-(morpholin-4-yl)phenyl]-3-(propan-2-yl)-1H-pyrazolo[3,4-b]pyridine-6-carboxylic acid], for which the results for the “% Activation” value on ΔF508-CFTR [1] and at ΔF508-CFTR [2] (setting [3]) were 135.2% and 17.605%, respectively. The EC50 at ΔF508-CFTR [1] was 5550 nM; on ΔF508-CFTR [2] (setting [4]), over 10000 nM.
On the same counts, the results for `Cc1nn(-c2ccccc2)c2nc(C(=O)O)cc(OCCC3CC(F)(F)C3)c12` [compound 347, 4-[2-(3,3-difluorocyclobutyl)ethoxy]-3-methyl-1-phenyl-1H-pyrazolo[3,4-b]pyridine-6-carboxylic acid] are 259.55%, 79.835%, 1410 nM and 1410 nM.
The like results for `O=C(O)c1cc(-c2ccc(N3CCOCC3)cc2)c2c(C3CCC3)nn(-c3cccc(F)c3)c2n1` [compound 349, 3-cyclobutyl-1-(3-fluorophenyl)-4-[4-(morpholin-4-yl)phenyl]-1H-pyrazolo[3,4-b]pyridine-6-carboxylic acid] were, in that order, 382.73%, 208.2%, 236 nM and 460 nM.
On the same counts, the results for `Cc1nn(-c2ccccc2)c2nc(C(=O)O)cc(-c3ccc(N4CC5(COC5)C4)cc3)c12` [compound 126, 3-methyl-4-[4-(2-oxa-6-azaspiro[3.3]heptan-6-yl)phenyl]-1-phenyl-1H-pyrazolo[3,4-b]pyridine-6-carboxylic acid] are 319.25%, 156.45%, 837 nM and 1690 nM.
Consider `CC1(COc2cc(C(=O)O)nc3c2c(C2CCC2)nn3-c2ccccc2)COCOC1` [compound 622, 3-cyclobutyl-4-[(5-methyl-1,3-dioxan-5-yl)methoxy]-1-phenyl-1H-pyrazolo[3,4-b]pyridine-6-carboxylic acid], for which, at ΔF508-CFTR [1], the “% Activation” value was determined as 275.2% and the EC50 is 67.5 nM. Besides, on ΔF508-CFTR [2] (setting [5]), the “% Activation” value came out at 124.5% and the half-maximal effective concentration (EC50) is 165 nM.
Turning to `CN(C)c1ccc(-n2nc(C3CCC3)c3c(-c4ccc(N5CCOCC5)cc4)cc(C(=O)O)nc32)cc1` [compound 357, 3-cyclobutyl-1-[4-(dimethylamino)phenyl]-4-[4-(morpholin-4-yl)phenyl]-1H-pyrazolo[3,4-b]pyridine-6-carboxylic acid], the “% Activation” value on ΔF508-CFTR [1] was 274.8%; at ΔF508-CFTR [2] (setting [3]), 113.47%. Besides, the concentration giving a half-maximal response (EC50) came to 806 nM at ΔF508-CFTR [1] and 885 nM at ΔF508-CFTR [2] (setting [4]).
As for `CC1(CCOc2cc(C(=O)O)nc3c2c(C2CCC2)nn3-c2ccccc2)CC1` [compound 631, 3-cyclobutyl-4-[2-(1-methylcyclopropyl)ethoxy]-1-phenyl-1H-pyrazolo[3,4-b]pyridine-6-carboxylic acid], on ΔF508-CFTR [1], the “% Activation” value is recorded as 283% and the EC50 stood at 177 nM. For the same compound, on ΔF508-CFTR [2] (setting [5]), the “% Activation” value came out at 99.143% and the EC50 is 346 nM.
On to `CC(C)c1nn(C2CCCCC2)c2nc(C(=O)O)cc(-c3cnc(N4CCCC(C#N)C4)nc3)c12` (centres unmarked) [compound 366, 4-[2-(3-cyanopiperidin-1-yl)pyrimidin-5-yl]-1-cyclohexyl-3-(propan-2-yl)-1H-pyrazolo[3,4-b]pyridine-6-carboxylic acid], for which the “% Activation” value at ΔF508-CFTR [1] was determined as 385.85%; at ΔF508-CFTR [2] (setting [3]) it was 199.1%. Also, the EC50 on ΔF508-CFTR [1] amounted to 602 nM; on ΔF508-CFTR [2] (setting [4]), 436 nM.
For `CC(C)c1nn(C2CCCCC2)c2nc(C(=O)O)cc(-c3cnc(N(C)C4CCOCC4)nc3)c12` [compound 236, 1-cyclohexyl-4-{2-[methyl(oxan-4-yl)amino]pyrimidin-5-yl}-3-(propan-2-yl)-1H-pyrazolo[3,4-b]pyridine-6-carboxylic acid], the “% Activation” value is 423.62% at ΔF508-CFTR [1] and 213.68% at ΔF508-CFTR [2] (setting [3]). Besides, the concentration giving a half-maximal response (EC50) is 638 nM at ΔF508-CFTR [1] and 656 nM at ΔF508-CFTR [2] (setting [4]).
Consider `CN1C(=O)CN(CC2CCN(c3cc(C(=O)O)nc4c3c(C3CCC3)nn4-c3ccccc3)CC2)CC12COC2` [compound 845, 3-cyclobutyl-4-{4-[(5-methyl-6-oxo-2-oxa-5,8-diazaspiro[3.5]nonan-8-yl)methyl]piperidin-1-yl}-1-phenyl-1H-pyrazolo[3,4-b]pyridine-6-carboxylic acid], for which, at ΔF508-CFTR [1], the “% Activation” value is 499.6% and the EC50 was 1080 nM. On ΔF508-CFTR [2] (setting [5]), the “% Activation” value turned out to be 273.7% and the EC50 is 1470 nM.
Turning to `CC(C)c1nn(-c2ccc(F)cc2)c2nc(C(=O)O)cc(N3CCC(CO)CC3)c12` [compound 394, 1-(4-fluorophenyl)-4-[4-(hydroxymethyl)piperidin-1-yl]-3-(propan-2-yl)-1H-pyrazolo[3,4-b]pyridine-6-carboxylic acid], the “% Activation” value on ΔF508-CFTR [1] worked out at 392.57%; at ΔF508-CFTR [2] (setting [3]), 235.1%. For the same compound, the EC50 on ΔF508-CFTR [1] came to 677 nM; at ΔF508-CFTR [2] (setting [4]) it was 1490 nM.
Regarding `O=C(O)c1cc(N2CCC(N3CCC(F)C3)CC2)c2c(C3CCC3)nn(-c3ccc(F)cc3)c2n1` (centres unmarked) [compound 846, 3-cyclobutyl-1-(4-fluorophenyl)-4-[4-(3-fluoropyrrolidin-1-yl)piperidin-1-yl]-1H-pyrazolo[3,4-b]pyridine-6-carboxylic acid], the “% Activation” value was found to be 495.1% on ΔF508-CFTR [1] and 317.9% at ΔF508-CFTR [2] (setting [5]). Further, the values for the EC50 at ΔF508-CFTR [1] and on ΔF508-CFTR [2] (setting [5]) were 968 nM and 874 nM, respectively.
The like results for `CC(C)c1nn(-c2ccc(F)cc2)c2nc(C(=O)O)cc(N3CCC(N(C)C(C)C)CC3)c12` [compound 799, 1-(4-fluorophenyl)-4-{4-[methyl(propan-2-yl)amino]piperidin-1-yl}-3-(propan-2-yl)-1H-pyrazolo[3,4-b]pyridine-6-carboxylic acid] were, in that order, 306.6%, 114%, 1670 nM and 1670 nM.
Take `CC(C)c1nn(C2CCCCC2)c2nc(C(=O)O)cc(N3CCCCC3)c12` [compound 265, 1-cyclohexyl-4-(piperidin-1-yl)-3-(propan-2-yl)-1H-pyrazolo[3,4-b]pyridine-6-carboxylic acid]: the entries for the “% Activation” value at ΔF508-CFTR [1] and on ΔF508-CFTR [2] (setting [3]) were 397.8% and 132.05%, respectively. In addition, the EC50 on ΔF508-CFTR [1] was determined as 1390 nM; on ΔF508-CFTR [2] (setting [4]), 1240 nM.
On the same counts, the results for `Cc1nn(-c2ccccc2)c2nc(C(=O)O)cc(OCCN3CCS(=O)(=O)CC3)c12` [compound 334, 4-[2-(1,1-dioxo-lλ^6,4-thiazinan-4-yl)ethoxy]-3-methyl-1-phenyl-1H-pyrazolo[3,4-b]pyridine-6-carboxylic acid] are 226.6%, 36.645%, 1900 nM and 4170 nM.
In the case of `Cc1nn(-c2ccccc2)c2nc(C(=O)O)cc(N3CC4(CCCCO4)C3)c12` [compound 312, 3-methyl-4-(5-oxa-2-azaspiro[3.5]nonan-2-yl)-1-phenyl-1H-pyrazolo[3,4-b]pyridine-6-carboxylic acid], the “% Activation” value came out at 185% at ΔF508-CFTR [1] and 61.325% on ΔF508-CFTR [2] (setting [3]). Further, the figures for the EC50 at ΔF508-CFTR [1] and at ΔF508-CFTR [2] (setting [4]) were 2320 nM and 2510 nM, respectively.
As to `O=C(O)c1cc(OC2CCOCC2)c2c(C3CCC3)nn(-c3ccccc3)c2n1` [compound 579, 3-cyclobutyl-4-[(oxan-4-yl)oxy]-1-phenyl-1H-pyrazolo[3,4-b]pyridine-6-carboxylic acid], the figures for the “% Activation” value at ΔF508-CFTR [1] and on ΔF508-CFTR [2] (setting [5]) were 263.5% and 97.37%, respectively. The figures for the EC50 on ΔF508-CFTR [1] and at ΔF508-CFTR [2] (setting [5]) were 267 nM and 238 nM, respectively.
Turning to `O=C(O)c1cc(N2CCC3(CC2)CCN(C2COC2)CC3)c2c(C3CCC3)nn(-c3ccc(F)cc3)c2n1` [compound 904, 3-cyclobutyl-1-(4-fluorophenyl)-4-[9-(oxetan-3-yl)-3,9-diazaspiro[5.5]undecan-3-yl]-1H-pyrazolo[3,4-b]pyridine-6-carboxylic acid], at ΔF508-CFTR [1], the “% Activation” value is given as 372.85% and the EC50 turned out to be 102 nM. For the same compound, on ΔF508-CFTR [2] (setting [5]), the “% Activation” value was determined as 200.1% and the EC50 amounted to 237 nM.
Regarding `CC(C)c1nn(-c2cccc(F)c2)c2nc(C(=O)O)cc(-c3ccc(N4CCC(C#N)CC4)cc3)c12` [compound 286, 4-[4-(4-cyanopiperidin-1-yl)phenyl]-1-(3-fluorophenyl)-3-(propan-2-yl)-1H-pyrazolo[3,4-b]pyridine-6-carboxylic acid], the “% Activation” value was found to be 448.23% at ΔF508-CFTR [1] and 259.83% on ΔF508-CFTR [2] (setting [3]). Also, the EC50 at ΔF508-CFTR [1] was determined as 256 nM; at ΔF508-CFTR [2] (setting [4]), 544 nM.
Take `CN1CCN(c2ccc(-c3cc(C(=O)O)nc4c3c(C3CCC3)nn4C3CCCCC3)cn2)CC1` [compound 877, 3-cyclobutyl-1-cyclohexyl-4-[6-(4-methylpiperazin-1-yl)pyridin-3-yl]-1H-pyrazolo[3,4-b]pyridine-6-carboxylic acid]: on ΔF508-CFTR [1], the “% Activation” value was determined as 374.57% and the EC50 stood at 605 nM. For the same compound, at ΔF508-CFTR [2] (setting [5]), the “% Activation” value came to 162.65% and the EC50 was determined as 348 nM.

For the origin of these results see patent US9796711B2, “Substituted pyrazolo[3,4-b]pyridin-6-carboxylic acids and method of use” (AbbVie S.àr.l., priority 2015, dated 2017).
